According to patent US6525001B1, “Substituted pyrimidine and pyridine herbicides” (Mid-American Commercialization Corporation, priority 1997, dated 2003):

Experiments:
Experiment in all cases: Test B pre-/postemergence
Type in all cases: in vivo
Set-up in all cases: key: 0 is no effect; 10 is complete control
soybean (Glycine max) = tested on: soybean (Glycine max)
Procedure, shortened: (§1)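 Seeds were planted and sprayed preemergence, while plants at 2 to 18 cm (1- to 4-leaf stage) were sprayed postemergence at the same time, with test chemical in a non-phytotoxic solvent mixture containing surfactant. After twelve to sixteen days in a greenhouse, injury was rated visually against untreated controls on a 0–10 scale.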

corn (Zea mays) = tested on: corn (Zea mays)
Procedure, shortened: as §1

[1] = tested on: blackgrass (Alopecurus myosuroides)
Procedure, shortened: as §1

[2] = tested on: wheat (Triticum aestivum)
Procedure, shortened: as §1

[3] = tested on: crabgrass (Digitaria sanguinalis)
Procedure, shortened: as §1

[4] = tested on: momingglory (Ipomoea hederacea)
Procedure, shortened: as §1

[5] = tested on: purple nutsedge (Cyperus rotundus)
Procedure, shortened: as §1

[6] = tested on: velvetleaf (Abutilon theophrasti)
Procedure, shortened: as §1

[7] = tested on: broadleaf signalgrass (Brachiaria decumbens)
Procedure, shortened: as §1

[8] = tested on: giant foxtail (Setaria faberii)
Procedure, shortened: as §1

[9] = tested on: cocklebur (Xanthium strumarium)
Procedure, shortened: as §1

[10] = tested on: pigweed (Amaranthus retroflexus)
Procedure, shortened: as §1

[11] = tested on: sugar beet (Beta vulgaris)
Procedure, shortened: as §1

wild oat (Avena fatua) = tested on: wild oat (Avena fatua)
Procedure, shortened: as §1

Cc1cnc(-c2ccc(OC(F)(F)F)cc2)nc1Cc1cccc(C(F)(F)F)c1 [Compound 16]
Plant response rating, Soybean (soybean (Glycine max); Rate 62 g/ha, Postemergence): 3 | Soybean plant response rating (soybean (Glycine max); Rate 62 g/ha, Preemergence): 0 | Plant response rating, Soybean (soybean (Glycine max); Rate 125 g/ha, Postemergence): 3 | Soybean plant response rating (soybean (Glycine max); Rate 125 g/ha, Preemergence): 0 | Plant response rating, Soybean (soybean (Glycine max); Rate 250 g/ha, Postemergence): 4 | Plant response rating, Soybean (soybean (Glycine max); Rate 250 g/ha, Preemergence): 0 | Plant response rating, Soybean (soybean (Glycine max); Rate 500 g/ha, Postemergence): 4 | Plant response rating, Soybean (soybean (Glycine max); Rate 500 g/ha, Preemergence): 0 | Plant response rating, Corn (corn (Zea mays); Rate 62 g/ha, Postemergence): 1 | Corn plant response rating (corn (Zea mays); Rate 62 g/ha, Preemergence): 0 | Plant response rating, Corn (corn (Zea mays); Rate 125 g/ha, Postemergence): 1 | Corn plant response rating (corn (Zea mays); Rate 125 g/ha, Preemergence): 0 | Plant response rating, Corn (corn (Zea mays); Rate 250 g/ha, Postemergence): 1 | Plant response rating, Corn (corn (Zea mays); Rate 250 g/ha, Preemergence): 0 | Plant response rating, Corn (corn (Zea mays); Rate 500 g/ha, Postemergence): 1 | Plant response rating, Corn (corn (Zea mays); Rate 500 g/ha, Preemergence): 0 | Plant response rating, Blackgrass ([1]; Rate 62 g/ha, Postemergence): 1 | Blackgrass plant response rating ([1]; Rate 62 g/ha, Preemergence): 0 | Plant response rating, Blackgrass ([1]; Rate 125 g/ha, Postemergence): 1 | Blackgrass plant response rating ([1]; Rate 125 g/ha, Preemergence): 0 | Plant response rating, Blackgrass ([1]; Rate 250 g/ha, Postemergence): 2 | Plant response rating, Blackgrass ([1]; Rate 250 g/ha, Preemergence): 2 | Plant response rating, Blackgrass ([1]; Rate 500 g/ha, Postemergence): 3 | Plant response rating, Blackgrass ([1]; Rate 500 g/ha, Preemergence): 4 | Plant response rating, Wheat ([2]; Rate 62 g/ha, Postemergence): 0 | Wheat plant response rating ([2]; Rate 62 g/ha, Preemergence): 0 | Plant response rating, Wheat ([2]; Rate 125 g/ha, Postemergence): 0 | Wheat plant response rating ([2]; Rate 125 g/ha, Preemergence): 0 | Plant response rating, Wheat ([2]; Rate 250 g/ha, Postemergence): 0 | Plant response rating, Wheat ([2]; Rate 250 g/ha, Preemergence): 0 | Plant response rating, Wheat ([2]; Rate 500 g/ha, Postemergence): 1 | Plant response rating, Wheat ([2]; Rate 500 g/ha, Preemergence): 0 | Plant response rating, Crabgrass ([3]; Rate 62 g/ha, Postemergence): 2 | Crabgrass plant response rating ([3]; Rate 62 g/ha, Preemergence): 0 | Plant response rating, Crabgrass ([3]; Rate 125 g/ha, Postemergence): 2 | Crabgrass plant response rating ([3]; Rate 125 g/ha, Preemergence): 0 | Plant response rating, Crabgrass ([3]; Rate 250 g/ha, Postemergence): 2 | Plant response rating, Crabgrass ([3]; Rate 250 g/ha, Preemergence): 2 | Plant response rating, Crabgrass ([3]; Rate 500 g/ha, Postemergence): 7 | Plant response rating, Crabgrass ([3]; Rate 500 g/ha, Preemergence): 8 | Morningglory plant response rating ([4]; Rate 62 g/ha, Preemergence): 0 | Plant response rating, Morningglory ([4]; Rate 125 g/ha, Postemergence): 1 | Morningglory plant response rating ([4]; Rate 125 g/ha, Preemergence): 0 | Plant response rating, Morningglory ([4]; Rate 250 g/ha, Postemergence): 1 | Plant response rating, Morningglory ([4]; Rate 250 g/ha, Preemergence): 0 | Plant response rating, Morningglory ([4]; Rate 500 g/ha, Postemergence): 1 | Plant response rating, Morningglory ([4]; Rate 500 g/ha, Preemergence): 1 | Plant response rating, Nutsedge ([5]; Rate 62 g/ha, Postemergence): 0 | Nutsedge plant response rating ([5]; Rate 62 g/ha, Preemergence): 0 | Plant response rating, Nutsedge ([5]; Rate 125 g/ha, Postemergence): 0 | Nutsedge plant response rating ([5]; Rate 125 g/ha, Preemergence): 0 | Plant response rating, Nutsedge ([5]; Rate 250 g/ha, Postemergence): 0 | Plant response rating, Nutsedge ([5]; Rate 250 g/ha, Preemergence): 0 | Plant response rating, Nutsedge ([5]; Rate 500 g/ha, Postemergence): 1 | Plant response rating, Nutsedge ([5]; Rate 500 g/ha, Preemergence): 0 | Plant response rating, Velvetleaf ([6]; Rate 62 g/ha, Postemergence): 1 | Velvetleaf plant response rating ([6]; Rate 62 g/ha, Preemergence): 0 | Plant response rating, Velvetleaf ([6]; Rate 125 g/ha, Postemergence): 2 | Velvetleaf plant response rating ([6]; Rate 125 g/ha, Preemergence): 0 | Plant response rating, Velvetleaf ([6]; Rate 250 g/ha, Postemergence): 2 | Plant response rating, Velvetleaf ([6]; Rate 250 g/ha, Preemergence): 1 | Plant response rating, Velvetleaf ([6]; Rate 500 g/ha, Postemergence): 2 | Plant response rating, Velvetleaf ([6]; Rate 500 g/ha, Preemergence): 1 | Plant response rating, B. signalgrass ([7]; Rate 62 g/ha, Postemergence): 1 | B. signalgrass plant response rating ([7]; Rate 62 g/ha, Preemergence): 0 | Plant response rating, B. signalgrass ([7]; Rate 125 g/ha, Postemergence): 1 | B. signalgrass plant response rating ([7]; Rate 125 g/ha, Preemergence): 2 | Plant response rating, B. signalgrass ([7]; Rate 250 g/ha, Postemergence): 1 | Plant response rating, B. signalgrass ([7]; Rate 250 g/ha, Preemergence): 3 | Plant response rating, B. signalgrass ([7]; Rate 500 g/ha, Postemergence): 1 | Plant response rating, B. signalgrass ([7]; Rate 500 g/ha, Preemergence): 7 | Plant response rating, Giant foxtail ([8]; Rate 62 g/ha, Postemergence): 1 | Giant foxtail plant response rating ([8]; Rate 62 g/ha, Preemergence): 0 | Plant response rating, Giant foxtail ([8]; Rate 125 g/ha, Postemergence): 1 | Giant foxtail plant response rating ([8]; Rate 125 g/ha, Preemergence): 3 | Plant response rating, Giant foxtail ([8]; Rate 250 g/ha, Postemergence): 1 | Plant response rating, Giant foxtail ([8]; Rate 250 g/ha, Preemergence): 7 | Plant response rating, Giant foxtail ([8]; Rate 500 g/ha, Postemergence): 3 | Plant response rating, Giant foxtail ([8]; Rate 500 g/ha, Preemergence): 8 | Plant response rating, Cocklebur ([9]; Rate 62 g/ha, Postemergence): 4 | Cocklebur plant response rating ([9]; Rate 62 g/ha, Preemergence): 0 | Plant response rating, Cocklebur ([9]; Rate 125 g/ha, Postemergence): 4 | Cocklebur plant response rating ([9]; Rate 125 g/ha, Preemergence): 0 | Plant response rating, Cocklebur ([9]; Rate 250 g/ha, Postemergence): 5 | Plant response rating, Cocklebur ([9]; Rate 250 g/ha, Preemergence): 0 | Plant response rating, Cocklebur ([9]; Rate 500 g/ha, Postemergence): 6 | Plant response rating, Cocklebur ([9]; Rate 500 g/ha, Preemergence): 0 | Plant response rating, Redroot pigweed ([10]; Rate 62 g/ha, Postemergence): 5 | Redroot pigweed plant response rating ([10]; Rate 62 g/ha, Preemergence): 0 | Plant response rating, Redroot pigweed ([10]; Rate 125 g/ha, Postemergence): 6 | Redroot pigweed plant response rating ([10]; Rate 125 g/ha, Preemergence): 0 | Plant response rating, Redroot pigweed ([10]; Rate 250 g/ha, Postemergence): 8 | Plant response rating, Redroot pigweed ([10]; Rate 250 g/ha, Preemergence): 8 | Plant response rating, Redroot pigweed ([10]; Rate 500 g/ha, Postemergence): 9 | Plant response rating, Redroot pigweed ([10]; Rate 500 g/ha, Preemergence): 8 | Plant response rating, Sugarbeets ([11]; Rate 62 g/ha, Postemergence): 8 | Sugarbeets plant response rating ([11]; Rate 62 g/ha, Preemergence): 0 | Plant response rating, Sugarbeets ([11]; Rate 125 g/ha, Postemergence): 8 | Sugarbeets plant response rating ([11]; Rate 125 g/ha, Preemergence): 1 | Plant response rating, Sugarbeets ([11]; Rate 250 g/ha, Postemergence): 9 | Plant response rating, Sugarbeets ([11]; Rate 250 g/ha, Preemergence): 7 | Plant response rating, Sugarbeets ([11]; Rate 500 g/ha, Postemergence): 9 | Plant response rating, Sugarbeets ([11]; Rate 500 g/ha, Preemergence): 9 | Plant response rating, Wild oats (wild oat (Avena fatua); Rate 62 g/ha, Postemergence): 0 | Wild oats plant response rating (wild oat (Avena fatua); Rate 62 g/ha, Preemergence): 0 | Plant response rating, Wild oats (wild oat (Avena fatua); Rate 125 g/ha, Postemergence): 0 | Wild oats plant response rating (wild oat (Avena fatua); Rate 125 g/ha, Preemergence): 1 | Plant response rating, Wild oats (wild oat (Avena fatua); Rate 250 g/ha, Postemergence): 1 | Plant response rating, Wild oats (wild oat (Avena fatua); Rate 250 g/ha, Preemergence): 2 | Plant response rating, Wild oats (wild oat (Avena fatua); Rate 500 g/ha, Postemergence): 1 | Plant response rating, Wild oats (wild oat (Avena fatua); Rate 500 g/ha, Preemergence): 3
